Experimental data: article PMC3031881, “Amyloid precursor protein selective gamma-secretase inhibitors for treatment of Alzheimer's disease” (Alzheimer's Research & Therapy, 2010)
Marks after values point to notes of the source that are not given here.

Legend:
[1] = system: Aβ production in SNC cells (CHO APPSw); experiment: SNC dual cell assay, secreted Aβ1-x ELISA; details: Cricetulus griseus; for IC50: read-out: IC50 for inhibition of Aβ production in the SNC assay; for EC50: read-out: SNC Aβ EC50
[2] = system: Notch signaling in SNC cells (rat NotchΔE, CBF-Luciferase); experiment: SNC dual cell assay, Notch signaling luciferase reporter; details: for APP selectivity (cellular, SNC assay): text of Discussion; for EC50: Rattus norvegicus, read-out: SNC Notch Signaling EC50
[3] = Oral bioavailability in rat; details: in vivo, read-out: oral bioavailability F
brain Aβ in PDAPP mice = experiment: Acute reduction of brain Aβ in PDAPP mice; type: in vivo, mouse; details: for reduction of brain Aβ1-x: 3 h
Experimental: (§1) Water and food were available ad libitum. […] Control animals were dosed with vehicle.
Figure 4 Acute reduction of brain Aβ by ELN318463 in PDAPP (a) and FVB mice (b). The mice were dosed orally with vehicle, or ELN318463 at 30 mg/kg or 100 mg/kg and sacrificed 3 h post treatment. Brain Aβ1-x in PDAPP (a), or Aβx-40 in FVB (b) was quantified by ELISA following extraction in guanidine buffer as described in methods. ** denotes P < 0.01, *** denotes P < 0.001 by Mann-Whitney in A, and two-tailed Students t-test in (b). TEXT PRINTED IN THE PICTURE: (A) no label printed: Aβ reduction: 37% (30[mpk]); Aβ reduction: 48% (100[mpk]) | (B) no label printed: Aβ reduction: 18% (30[mpk]); Aβ reduction: 18% (100[mpk])

[4] = molecular target: T1, gamma-secretase complex (from CHO S1 cells) (Homo sapiens, UniProt P49768); experiment: Competitive displacement of biotinylated active site isostere (PS1/Nicastrin Western blot); type: binding
T1 construct: expressed in transfected cells; host or cells: CHO S1 cells

[5] = Compound levels in plasma and brain by LC-MS-MS; details: for concentration at 3 h: mouse
brain Aβx-40 in FVB mice [6] = experiment: Acute reduction of brain Aβx-40 in wild-type FVB mice; type: in vivo, mouse
Experimental: as §1
Statistical significance was determined by ANOVA.

brain Aβx-40 in FVB mice [7] = experiment: Seven-day b.i.d. repeat dose study, brain Aβx-40; details: seven days; for reduction of brain Aβ: three hours post last dose
[8] = Metabolism (N-glucuronidation); details: precluded longer-term studies in mice (or other models)
[9] = system: thymic Hes-1 mRNA (Notch signaling); experiment: Thymic Hes-1 mRNA after single dose in FVB mice (TaqMan RT-PCR); type: in vivo, mouse; details: three hours
Experimental: as §1

[10] = system: FVB mice (Math1 mRNA, body and organ weight, neutrophils); details: seven days b.i.d.; LY411575 5 mg/kg/dose; ELN475516 up to 1,000 mg/kg/dose
[11] = system: duodenum and ileum of FVB mice; experiment: Seven-day b.i.d. repeat dose study, small intestine histopathology (goblet cell hyperplasia); details: for goblet cells in ileum sections / goblet cell hyperplasia: seven days b.i.d.; for goblet cells in ileum sections: H&E and PAS stained sections; for goblet cell hyperplasia: LY411575 5 mg/kg duodenum and ileum, ELN475516 any dose, duodenum
PDAPP mouse = system: PDAPP mouse; set-up: method as in earlier work; details: three and six months, doses which affected AD pathology; cited from earlier work
brain Aβ in Tg2576 mice = system: brain Aβ in Tg2576 mice; set-up: method as in PMID 19671883; details: cited from earlier work
[12] = system: APP metabolites in HEK293 cells stably expressing APPsw; experiment: APP metabolites by Western blot in inhibitor treated cells; details: approximately 1 X and 10 X ED50, overnight, cell extracts
[13] = single oral dose 30 mg/kg, three hours post dose
[14] = 15 mg/kg/dose b.i.d., 7 days, N = 5
[15] = 30 mg/kg/dose b.i.d., 7 days, N = 5
[16] = 100 mg/kg/dose b.i.d., 7 days, N = 5
[17] = 300 mg/kg/dose b.i.d., 7 days, N = 5
[18] = 600 mg/kg/dose b.i.d., 7 days, N = 5
[19] = 1,000 mg/kg/dose b.i.d., 7 days, N = 5
[20] = ileum, among all mice of the ELN475516 treated groups
[21] = 5 mg/kg/dose b.i.d., 7 days, goblet cell hyperplasia in affected animals

NC(=O)[C@@H](CCC(F)(F)F)N(Cc1ccc(-c2ncon2)cc1F)S(=O)(=O)c1ccc(Cl)cc1 [BMS-708163]
IC50 [1]: 1.13 nM
APP selectivity (cellular, SNC assay) [2]: 57 X

O=C1NCCCC[C@H]1N(Cc1ccc(Br)cc1)S(=O)(=O)c1ccc(Cl)cc1 [ELN318463, N-(4-Bromobenzyl)-4-chloro-N-((3R)-2-oxoazepan-3-yl)benzenesulfonamide]
bioavailability [3]: 30%
reduction of Aβx-40 (brain Aβ in PDAPP mice; 30 mg/kg oral): 20%
reduction of Aβx-40 (brain Aβ in PDAPP mice; 100 mg/kg oral): 25%
reduction of brain Aβ1-x (brain Aβ in PDAPP mice; single oral dose 30 mg/kg): 37%
reduction of brain Aβ1-x (brain Aβ in PDAPP mice; single oral dose 100 mg/kg): 48%
displacement of biotinylated active site probe ([4]; in the absence of substrate): No displacement
EC50 [1]: 23.4 ± 8.6 nM
EC50 [2]: 2820 nM
Cellular Selectivity (APP/Notch) ([2]; ratio of cellular Notch signaling and Aβ EC50): 120
concentration at 3 h ([5]; PDAPP, brain, po, 30 mg/kg): 690 nM
concentration at 3 h ([5]; PDAPP, brain, po, 100 mg/kg): 1870 nM
concentration at 3 h ([5]; female, FVB/N, brain, po, 30 mg/kg): 754 nM
concentration at 3 h ([5]; female, FVB/N, brain, po, 100 mg/kg): 2700 nM
reduction of brain Aβx-40 (brain Aβx-40 in FVB mice [6]; [13]): 18%
reduction of brain Aβx-40 (brain Aβx-40 in FVB mice [6]; single oral dose 100 mg/kg, 3 h post dose): 18%

O=S(=O)(c1ccc(Cl)cc1)N1C2CCCC1c1cn[nH]c1C2 (centres unmarked) [ELN475516, 10-((4-Chlorophenyl)sulfonyl)-4,5,6,7,8,9-hexahydro-1H-4,8-epiminocycloocta(c)pyrazole]
reduction of brain Aβ (brain Aβx-40 in FVB mice [7]; 15 mg/kg/dose b.i.d. oral): 33%
maximal effect, reduction of brain Aβ (brain Aβx-40 in FVB mice [7]; >100 mg/kg b.i.d. oral): 74%
metabolic liability [8]: Limiting N-glucuronidation
reduction of cortical Aβ1-x (brain Aβ in PDAPP mice; single oral dose 10 mg/kg, three hours): 31%
reduction of brain Aβ1-x (brain Aβ in PDAPP mice; single oral dose 30 mg/kg): 45%
EC50 [1]: 8.73 ± 3.96 nM
thymic Hes-1 mRNA ([9]; single oral dose 300 mg/kg (highest dose tested)): statistically significant reduction
EC50 [2]: 719 ± 225 nM
Math1 mRNA levels in duodenum and ileum [10]: No effects
terminal plasma compound levels ([5]; acute single dose study, highest dose tested (300 mg/kg), FVB mice): 12.3 µM
concentration at 3 h ([5]; female, FVB, in vivo, 15 mg/kg): 187 nM
concentration at 3 h ([5]; female, FVB, in vivo, 1000 mg/kg/dose): 12300 nM
Duodenum # animals affected [11, 14]: 0
Ileum # animals affected [11, 14]: 0
Duodenum # animals affected [11, 15]: 0
Ileum # animals affected [11, 15]: 4
Ileum Mean severity score ([11]; 30 mg/kg/dose b.i.d., 7 days, affected animals): 0.5
Duodenum # animals affected [11, 16]: 0
Ileum # animals affected [11, 16]: 2
Ileum Mean severity score ([11]; 100 mg/kg/dose b.i.d., 7 days, affected animals): 1.25
Duodenum # animals affected [11, 17]: 0
Ileum # animals affected [11, 17]: 0
Duodenum # animals affected [11, 18]: 0
Ileum # animals affected [11, 18]: 2
Ileum Mean severity score ([11]; 600 mg/kg/dose b.i.d., 7 days, affected animals): 0.5
Duodenum # animals affected [11, 19]: 0
Ileum # animals affected [11, 19]: 1
Ileum Mean severity score ([11]; 1,000 mg/kg/dose b.i.d., 7 days, affected animals): 0.5
number of mice with a questionable increase in goblet cells [11, 20]: 8
number of mice with no increase in goblet cells [11, 20]: 21
goblet cells in ileum sections [11]: no apparent dose-related increase
goblet cell hyperplasia [11]: not observed
brain Aβ levels by 24 hours post dose (brain Aβx-40 in FVB mice [6]; all treatment groups (30, 100, 300 mg/kg)): returning to baseline
reduction of brain Aβ (brain Aβx-40 in FVB mice [6]; single oral dose 30 mg/kg, 10 hours post dose): 28%
reduction of brain Aβx-40 (brain Aβx-40 in FVB mice [6]; [13]): 40%
reduction of brain Aβ (brain Aβx-40 in FVB mice [6]; single oral dose 100 mg/kg, 10 hours post dose): 33%
reduction of brain Aβ (brain Aβx-40 in FVB mice [6]; single oral dose 100 mg/kg, 14 hours post dose): 14%
reduction of brain Aβ (brain Aβx-40 in FVB mice [6]; single oral dose 300 mg/kg, 10 hours post dose): 56%
reduction of brain Aβ (brain Aβx-40 in FVB mice [6]; single oral dose 300 mg/kg, 14 hours post dose): 29%
reduction of brain Aβx-40 (brain Aβx-40 in FVB mice [6]; single oral dose 300 mg/kg, three hours post dose): 71%
time of maximal reduction of brain Aβ post dose (brain Aβx-40 in FVB mice [6]; single oral dose 30, 100, 300 mg/kg): three

O=S(=O)(c1ccc(C(F)(F)F)cc1)N1c2cc(F)c(F)cc2-c2[nH]ncc2[C@H]1C1CC1 [ELND006]
tolerability in chronic study (PDAPP mouse): well tolerated

O=S(=O)(N[C@H](CO)C(C(F)(F)F)C(F)(F)F)c1ccc(Cl)s1 [GSI-953]
IC50 [1]: 8 nM
APP selectivity (cellular, SNC assay) [2]: 45 X
dose producing a similar magnitude effect (33% brain Aβ reduction) (brain Aβ in Tg2576 mice): 5 mg/kg
reduction of brain Aβx-40 (brain Aβx-40 in FVB mice [6]; [13]): 33%

CC(C)C[C@H](NC(=O)[C@H](Cc1ccccc1)C[C@@H](O)[C@H](Cc1ccccc1)NC(=O)OC(C)(C)C)C(=O)N[C@@H](Cc1ccccc1)C(N)=O [L-685,458, tert-Butyl (2S,3R,5R)-6-((S)-1-((S)-1-amino-1-oxo-3-phenylpropan-2-ylamino)-4-methyl-1-oxopentan-2-ylamino)-5-benzyl-3-hydroxy-6-oxo-1-phenylhexan-2-ylcarbamate]
effect on α-CTF and β-CTF of APP [12]: stabilize both α-CTF and β-CTF in a dose-dependent manner
captured gamma-secretase complex competed ([4]; co-incubation with 10 μM, 50 nM biotinylated probe, preliminary experiments): > 90%
concentration for 50% displacement of biotinylated active site isostere probe, above IC50 in the gammaAPP assay ([4]; no added substrate): approximately three
EC50 [1]: 13.2 ± 4.5 nM
EC50 [2]: 184 ± 145 nM

C[C@H](NC(=O)[C@@H](O)c1cc(F)cc(F)c1)C(=O)N[C@@H]1C(=O)N(C)c2ccccc2-c2ccccc21 [LY411575, (S)-2-((S)-2-(3,5-Difluorophenyl)-2-hydroxyacetamido)-N-((S)-5-methyl-6-oxo-6,7-dihydro-5H-dibenzo(b,d)azepin-7-yl)propanamide, reference compound]
reduction of brain Aβ (brain Aβx-40 in FVB mice [7]; 5 mg/kg b.i.d. oral): 83%
EC50 [1]: 0.116 ± 0.011 nM
reduction of thymic Hes-1 mRNA ([9]; single oral dose 10 mg/kg): 60%
EC50 [2]: 1.8 ± 1.35 nM
Math1 mRNA levels in duodenum and ileum [10]: robust elevation
Ileum # animals affected ([11]; 5 mg/kg/dose b.i.d., 7 days, N = 5): 5
Duodenum # animals affected ([11]; 5 mg/kg/dose b.i.d., 7 days, N = 5 (tissue lost from one animal)): 4*
Duodenum Mean severity score [11, 21]: 2
Ileum Mean severity score [11, 21]: 3
goblet cells in ileum sections [11]: moderate increase in goblet cells
goblet cell hyperplasia [11]: readily apparent
reduction of brain Aβx-40 (brain Aβx-40 in FVB mice [6]; single oral dose 10 mg/kg, three hours post dose): 74%
